Measured values as given in US20060287252A1, “Substances k01-0509 and process for producing the same” (priority 2004, published 2006).

Experiments:
Assay type in all cases: cell-based
[1] = test system: enteropathogenic E. coli E2348/69 (wild strain)
[2] = test system: Bacillus subtilis ATCC 6633; assay: Antibiotic activity by paper disc method; conditions: 10 μg/disc, paper disc 6 mm, nutrient agar, 24 hours cultivation
[3] = test system: Micrococcus luteus ATCC 9341; assay: Antibiotic activity by paper disc method; conditions: 10 μg/disc, paper disc 6 mm, nutrient agar, 24 hours cultivation
E. coli NIHJ = assay: Antibiotic activity by paper disc method; conditions: 10 μg/disc, paper disc 6 mm, nutrient agar, 24 hours cultivation
[4] = test system: Xanthomonas campestris pv. oryzae KB88

Measured: inhibition zone

CC(NC(=O)C1NC(C)C(=O)NC1CCC(O)C(O)CC1CNC(=N)N1C(N)=O)C(=O)NC(C(=O)O)C(C)C (stereo not shown) [K01-0509-A1 substance]
no inhibition zone: all assays above

CC(NC(=O)C1NC(C)C(=O)NC1CCC(O)C(O)CC1CNC(=N)N1C(N)=O)C(=O)NC(C(=O)O)C(C)C (stereo not shown) [K01-0509-A2 substance]
no inhibition zone: [1] | [4]
